Consider 13 compounds from patent US5849865A, “Peptides for altering bone resorption, angiogenesis and restenosis” (La Jolla Cancer Research Foundation, priority 1995, dated 1998).

Entries after “also recorded” stand apart in the source; their conditions may differ. Where a SMILES comes first, the peptide text is derived from it. Bridges are numbered along the chain shown (N, C = ends). [ ]: non-standard residue; d: D form. Tic = O=C(O)[C@@H]1Cc2ccccc2CN1; Pen = CC(C)(S)[C@H](N)C(=O)O; Mpa = O=C(O)CCS

For one test, the target named is T1, α5 β1 (FnR) (Homo sapiens, UniProt P05556+P08648).
T1 construct: Fibronectin receptor (FnR) was purified from 100 mM octyl-glucopyranoside-extracted human placenta; from tissue
Kind of test: α5 β1 ELISA (competitive). It counts as binding. The following applies: comparison of receptor ELISAs. The protocol: Peptide binding to purified human α5 β1 (FnR) also as determined using a competitive ELISA. In these assays, […] was immobilized to the wells and the binding of solubilized FnR in the presence of various concentrations of a peptide analogue was determined using a mouse monoclonal antibody to human β1 (clone P4C10; Gibco) and specific binding was visualized using a second antibody.
Microtiter wells were coated at RT by adding 100 μl of 2 μg/ml human Fn in TBS and incubating the plates overnight at 4° C. Following incubation, the plates were washed 3× with TBS/"TWEEN 20". RGD peptides were diluted in TBS containing 20 mM OG and 2 mM MnCl2 and 50 μl was added to wells at 10-fold serial dilutions. FnR was diluted in the same buffer and 50 μl was added to each well.
The plates were incubated for 3 hr at RT and washed with 300 μl TBS/"TWEEN 20". Bound receptor was incubated with 100 μl of the monoclonal anti-β1 antibody for 2 hr, then washed 3× with TBS/"TWEEN 20". […] The amount of bound second antibody was determined as described above.
The IC50 values for various RGD peptides were calculated by determining the concentration of a peptide that inhibited binding of Vn to αv β5 or αv β3 or of Fn to α5 β1 by 50%. The results of these assays are shown in FIG. 2 (columns designated "Receptor Assays").
In general terms: An ELISA detects its analyte on a solid surface through an enzyme-linked reagent.

For the next test, the target named is T2, αv β3 receptor (Homo sapiens, UniProt P05106+P06756).
T2 construct: The αv β3 receptor was purified from octyl-glucopyranoside-extracted human placenta; from tissue
The class given is binding. The following applies: comparison of IC50 values of αv β3 ELISA / JY cells with αv β5 and α5 β1 ELISAs. The procedure:
Peptide binding to purified αv β3 receptor was determined by using a competitive ELISA, in which αv β3 receptor was immobilized and the binding of solubilized VN, in the presence of various concentrations of peptide analogue, was detected using a monoclonal mouse IgG anti-VN antibody and a labelled anti-mouse IgG conjugate.
96 well microtiter plates were coated overnight at RT with 100 μl/well of αv β3 receptor (0.5 μg/ml in 1×TBS, 4 mM octylglucoside, 1 mM CaCl2). The wells were blocked with 200 μl/well of 1% BSA in 1×TBS, 1 mM CaCl2 for at least 30 min. The plates were washed 2× with 1×TBS, 1 mM CaCl2. 50 μl peptide in 1×TBS, 1 mM CaCl2, 0.05% "TWEEN 20" (polyoxyethylenesorbitan monolaurate) was added in 10-fold serial dilutions. 50 μl of Vn in the same buffer then was added to each well.
The plates were incubated for 3 hr at RT, then washed 3× with 1×TBS, 0.05% "TWEEN 20". 100 μl of 8E6 (Telios) diluted to 1:6000 in 1×TBS, 0.05% "TWEEN 20" was added to the wells and the plates were incubated for 1 hr at RT. Plates were washed 3× with 1×TBS, 0.05% "TWEEN 20". Affinity purified goat anti-mouse IgG conjugated to horseradish peroxidase (100 μl/well; BioRad; Hercules Calif.) was added to each well and incubated for 1 hr at RT. Plates were washed 3× with 1×TBS, 0.05% "TWEEN 20". 100 μl/well of substrate mixture (10 mg O-phenylenediamine in 25 ml 0.1M citrate-phosphate buffer, pH 5.0, 6 μl 30% H2 O2) was added to the plates and allowed to develop. The development process was stopped by adding 50 μl to 4N H2 SO4 to each well. The plates were read at 490 nm and the data analyzed by four parameter fit.

Test [1] in a line: parathyroid hormone-induced hypercalcemia in mice. The class given is in vivo, Swiss-Webster mice. The note with it: parathyroidectomized mice, 0.2 mg PTH/kg i.v., peptide infused 4 hr. From the text: Parathyroid hormone (PTH) activates osteoclasts, which are involved in bone resorption. Associated with the increased osteoclast activity is an increase in serum calcium. The PTH-induced hypercalcemia assay measures the level of serum calcium, which is an indication of bone resorption in a subject (Fischer et al., Endocrinology 132:1411-1413 (1993), which is incorporated herein by reference).
Swiss-Webster mice, which had been parathyroidectomized two weeks prior to beginning the assay, were obtained from Taconic Lab Animals and Services (Germantown N.Y.). Femoral vein catheters (PE-50 fused with PE10 polyethylene tubing; Becton Dickinson; Parsippany, N.J.) were installed in the mice, flushed and locked with heparinized saline (1:10), sutured to adjacent muscle and internalized within the inguinal space of the incision before closing the incision with wound clips. […]
The experiment was initiated by feeding the mice a calcium-deficient diet overnight, then injecting the mice the following morning with a bolus of 0.2 mg PTH/kg (hPTH 1-34; Bachem; Torrance Calif.), intravenously. […] Various doses of a peptide or vehicle were infused into an animal for 4 hr, then ionized serum calcium again was measured. […] Serum calcium measurements were expressed as the difference between the value 30 min before the PTH pulse and 4 hr after peptide infusion was started. […]

Test [2] in a line: series of assays of Examples II and III for potency and selectivity. The source says: Peptides of the RGDNTic (SEQ ID NO: 56) pharmacophore group are characterized, in general, as having increased potency, whereas the peptides of the pharmacophore RGDDV (SEQ ID NO: 1) group generally have higher receptor selectivity. […] As used herein, the term "potency" or "potent" means that a peptide of the invention is active at a relatively low concentration in the assays described in Examples II and III. A potent peptide of the invention can be identified, for example, using the assays described in Examples II and III.
The present invention also provides a series of in vitro and in vivo assays useful for screening a panel of peptides in order to identify peptides that can reduce or inhibit bone resorption or that can alter integrin binding such as αv β3 integrin receptor-mediated binding. Such peptides can include, for example, peptides within the pharmacophore groups exemplified herein or peptides within other pharmacophore groups. The series of assays disclosed herein is particularly useful for determining the selectivity and potency of a peptide for reducing or inhibiting bone resorption. The selectivity of a peptide for an integrin receptor involved in osteoclast binding to bone can be determined, for example, using the integrin receptor assays and cell attachment and detachment assays described herein. Use of cell-based assays in conjunction with receptor-based assays is informative because the receptor ELISAs provide useful information regarding the binding characteristics of a particular peptide toward a particular integrin and because the cell-based assays confirm that those characteristics are relevant to the αv β3 receptor or to bone resorption.

For test [3] the following is noted: Choi et al. 1994; cited from earlier work.
A further test concerns osteoclasts. The following applies: Sato et al. 1990; EP 437,367; cited from earlier work.
The conditions of test [4]: Fisher et al. 1993; cited from earlier work.

Regarding `C[C@H](NC(=O)[C@@H]1CSSC(C)(C)[C@H](NC(=O)CN)C(=O)N[C@@H](CCCNC(=N)N)C(=O)N[C@@H](C)C(=O)N[C@@H](CCCNC(=N)N)C(=O)NCC(=O)N[C@@H](CC(=O)O)C(=O)N[C@@H](CC(N)=O)C(=O)N2CCC[C@H]2C(=O)N1)C(=O)O` [compound 100] (H-G[Pen]RARGDNPCA-OH; disulfide 2-10), the “selectivity toward α5 β1 versus αv β5” value at α5 β1 (FnR) is on record as “more selective toward α5 β1 than toward αv β5”.
Take `CC(C)[C@@H]1NC(=O)[C@H](CC(=O)O)NC(=O)[C@H](CC(=O)O)NC(=O)CNC(=O)[C@H](CCCNC(=N)N)NC(=O)[C@H](C)NC(=O)[C@H](CCCNC(=N)N)NC(=O)[C@@H](NC(=O)CN)C(C)(C)SSC[C@@H](C(=O)N[C@@H](C)C(=O)O)NC1=O` [compound 138] (H-G[Pen]RARGDDVCA-OH; disulfide 2-10): on αv β3 receptor, the “receptor selectivity for αv β3 as compared to αv β5 and α5 β1” value (“receptor selectivity for αv β3” below) is “particularly receptor selective”.
On the same count and under the same terms, then `C[C@@H]1NC(=O)[C@H](C)NC(=O)[C@@H](NC(=O)CN)C(C)(C)SSC[C@@H](C(N)=O)NC(=O)[C@H]([C@@H](C)O)NC(=O)[C@H](CC(=O)O)NC(=O)[C@H](CC(=O)O)NC(=O)CNC(=O)[C@H](CCCNC(=N)N)NC1=O` [compound 186] (H-G[Pen]AARGDDTC-NH2; disulfide 2-10), with “particularly receptor selective”.
For `CC(C)[C@@H]1NC(=O)[C@H](CC(=O)O)NC(=O)[C@H](CC(=O)O)NC(=O)CNC(=O)[C@H](CCCNC(=N)N)NC(=O)CCSSC[C@@H](C(N)=O)NC1=O` [compound 191] ([Mpa]RGDDVC-NH2; disulfide 1-7), the “PTH-induced rise in serum ionized calcium” value in test [1] is “decreased the PTH-induced rise in serum ionized calcium in a dose responsive manner”.
As for `CC(=O)N[C@H]1CSSC(C)(C)[C@@H](C(N)=O)NC(=O)[C@@H]2CCCN2C(=O)[C@H](CC(N)=O)NC(=O)[C@H](CC(=O)O)NC(=O)CNC(=O)[C@H](CCCNC(=N)N)NC1=O` [compound 228] (Ac-CRGDNP[Pen]-NH2; disulfide 1-7), at αv β3 receptor, the “receptor selectivity for αv β3” value is recorded as “particularly receptor selective”.
Consider `C[C@H](NC(=O)[C@@H]1CSSC(C)(C)[C@H](NC(=O)CN)C(=O)N[C@@H](C)C(=O)N[C@@H](C)C(=O)N[C@@H](CCCNC(=N)N)C(=O)NCC(=O)N[C@@H](CC(=O)O)C(=O)N[C@@H](CC(N)=O)C(=O)N2CCC[C@H]2C(=O)N1)C(=O)O` [compound 310] (H-G[Pen]AARGDNPCA-OH; disulfide 2-10), for which the “selectivity toward α5 β1 versus αv β5” value at α5 β1 (FnR) is “more selective toward α5 β1 than toward αv β5”.
On the same count and under the same terms, then `C[C@@H]1NC(=O)[C@H](CCCNC(=N)N)NC(=O)CNC(=O)CC[C@@H](C(N)=O)NC(=O)[C@@H]2CCCN2C(=O)[C@H](CC(N)=O)NC(=O)[C@H](CC(=O)O)NC(=O)CNC(=O)[C@H](CCCNC(=N)N)NC1=O` [compound 390] (GRARGDNPE-NH2; lactam N-9), with “more selective toward α5 β1 than toward αv β5”.
With `CC(=O)N[C@H]1CSSC[C@@H](C(N)=O)NC(=O)[C@@H]2Cc3ccccc3CN2C(=O)[C@H](CO)NC(=O)[C@H](CC(=O)O)NC(=O)CNC(=O)[C@H](CCCNC(=N)N)NC1=O` [compound 812, Ac-CRGDS(Tic)C-NH2] (Ac-CRGDS[Tic]C-NH2; disulfide 1-7), the “activity of minimal-element peptides (FIG. 2)” value in test [2] was “demonstrate activity”. In addition, the “potency (active at a relatively low concentration)” value in test [2] (summary of assays) is recorded as “particularly potent”.
For the compound `N=C(N)NCCC[C@@H]1NC(=O)CC[C@@H](C(N)=O)NC(=O)[C@@H]2CCCN2C(=O)[C@H](CO)NC(=O)[C@H](CC(=O)O)NC(=O)CNC1=O` [compound 825] (RGDSPE-NH2; lactam N-6), the “selectivity toward α5 β1 versus αv β5” value at α5 β1 (FnR) is reported as “more selective toward α5 β1 than toward αv β5”.
Turning to `CC(=O)N[C@@H]1C(=O)N[C@@H](Cc2ccccc2)C(=O)N[C@@H](C)C(=O)N[C@@H](CCCNC(=N)N)C(=O)NCC(=O)N[C@@H](CC(=O)O)C(=O)N[C@@H](CC(N)=O)C(=O)N2CCC[C@H]2C(=O)N[C@H](C(N)=O)CSSC1(C)C` [peptide 214] (Ac-[Pen]FARGDNPC-NH2; disulfide 1-9), the “potency (active at a relatively low concentration)” value in test [2] (summary of assays) is reported as “particularly potent”.
Regarding `CC(C)[C@@H]1NC(=O)[C@H](CC(=O)O)NC(=O)[C@H](CC(=O)O)NC(=O)CNC(=O)[C@H](CCCNC(=N)N)NC(=O)CNC(=O)C[C@@H](C(N)=O)NC1=O` [peptide 368] (GRGDDVD-NH2; lactam N-7), the “receptor selectivity for αv β3” value on αv β3 receptor is recorded as “receptor selective for αv β3; also recorded: selective peptide; also recorded: particularly receptor selective”. Further, the “both potent and selective” value in test [2] (summary of assays) was “both potent and selective”.
As for G(Pen)GRGDSPCA, the neointimal hyperplasia result in test [3] was “can inhibit neointimal hyperplasia”.
For the compound echistatin, the “bone resorption in vitro” value with osteoclasts was “inhibits bone resorption in vitro”. For the same compound, in test [4], the “bone resorption in vivo” value is recorded as “inhibits bone resorption”.
